Structures are written as SMILES.

This is an account of results in patent US12522575B2, “2-diarylmethyl-4-aminotetrahydropyran derivatives and related compounds as anticancer, antiinflammatory, antifibrotic and neuroprotective agents” (Atux Iskay LLC, priority 2021, dated 2026).

Holding throughout (assay type): cell-based
In assay [1] the test system is D425 medulloblastoma cells. Kind of assay: D425 cell viability / proliferation (CellTiter-Glo). Particulars: for IC50: Medulloblastoma cell, 48 hours treatment, CellTiter-Glo, read-out: IC50 for D425 cell growth. The method, then: D425 medulloblastoma cells were purchased from SigmaAldrich. D425 meduloblastoma cells were cultured in improved Dulbecco's modified Eagle's medium (DMEM) Richter's modification supplemented with 20% fetal bovine serum and 1% Penicillin-streptomycin. Incubation was performed at 37° C. and 5% CO2.
D425 cells were seeded at 3000-3500 cells/90 ul growth medium per well on 96-well tissue culture plates. Cells were incubated overnight to allow them to recover. Next day cells were treated with tested compounds and incubated for 48 hours.
Cell Proliferation assays in triplicate were performed at each concentration. Compounds test range was 1-30 μM (0, 5, 10, 15, 20, 25, and 30). The compounds were dissolved in DMSO. A series of dilutions were made in 1% DMSO in growth medium so that the final concentration of DMSO is 0.1% in all of treatments.
After treatment, cells were allowed to equilibrate at room temperature for one hour. Cell proliferation was measured by Luminescence quantification using Promega CellTiter-Glo Luminescent Cell Viability Assay. To perform the assay, 90 ul of Celltiter-Glo substrate was added to each well, plates were shake for 2 minutes and allowed to equilibrate for 10 minutes at room temperature. Luminescence intensity was measured using the Spectramax i3x plate reader.
The Luminescence intensity data were analyzed using the computer software Graphpad Prism. In the absence of the compound, the luminescence intensity (Lt) in each data set was defined as 100% cell viability. The percent cell in the presence of each compound was calculated according to the following equation: % Cell=L/Lt, were L=the luminescence intensity in the presence of the compound.
The values of % cell versus a series of compound concentrations (0, 5, 10, 15, 20, 25, and 30 μM) were then plotted using Nonlinear regression analysis of Sigmoidal dose-response curve. IC50 value was determined by the concentration causing a half-maximal percent activity.
(In general: In ATP-based viability assays light output follows the ATP content of the culture.)

In assay [2] the test system is phosphatase activity in ApoE transfected A172 glioblastoma cells. The experiment in a line: Cellular in vitro phosphatase activation assay (Malachite Green) in ApoE transfected A172 cells. To be noted: 24 hours. The method, then:
Cellular in vitro phosphatase activation assay was performed using the method of Theendakara et al, Molecular and Cellular Neuroscience, 83 (2017), pages 83-91 which is described below:
(§1) A172 glioblastoma cells were cultured in Dulbecco's modified Eagle's medium (DMEM) supplemented with 10% fetal bovine serum and 1% Penicillin-streptomycin. Incubation was performed at 37° C. and 5% CO2.
A172 cells were seeded at 5×10^5 cells/2.5 ml growth medium (without antibiotics) per well on 6-well tissue culture plates. Cells were incubated overnight to allow them to recover and reattach. […]
After 24 hrs, cells were washed twice with imidazole buffer and lysed using NP-40 Lysis buffer. […] The amount of phosphate release in the assay was determined by measuring absorbance at 620 nm using the Spectramax i3x plate reader.
The absorbance intensity data were analyzed using the computer software Graphpad Prism. The phosphate concentration for each sample was determined from the standard curve using phosphate standard concentrations. In order to compare samples, the first set (column A) were there was no transfection performed and no compound added, was designated a baseline; the absorbance measurement in this column was set as 100% phosphatase activity.

The next assay has as its system A172 glioblastoma cells. The experiment in a line: A172 cell viability / proliferation (CellTiter-Glo). To be noted: Homo sapiens, A 172, 48-72 hours treatment, read-out: IC50 for A172 cell growth. The method, then:
as §1
A172 cells were seeded at 3000-3500 cells/90 μL growth medium per well on 96-well tissue culture plates. Cells were incubated overnight to allow them to recover and reattach. Next day cells were treated with tested compounds and incubated for 48-72 hours.
Cell Proliferation assays in triplicate were performed at each concentration. Compounds test range was 1-30 µM (0, 5, 10, 15, 20, 25, and 30). The compounds were dissolved in DMSO. […]
After treatment, cells were allowed to equilibrate at room temperature for 1/2 to one hour. Cell proliferation was measured by Luminescence quantification using Promega CellTiter-Glo Luminescent Cell Viability Assay. […] Luminescence intensity was measured using the Spectramax i3× plate reader.
The Luminescence intensity data were analyzed using the computer software Graphpad Prism. In the absence of the compound, the luminescence intensity (Lt) in each data set was defined as 100% cell viability. The percent cell in the presence of each compound was calculated according to the following equation: % Cell=L/Lt, were L=the luminescence intensity in the presence of the compound. […]

Take `O=S(=O)(NC1CCOC(C2c3ccccc3CCc3ccccc32)C1)c1ccc(OC(F)(F)F)cc1` (racemic) [Example 2, N-(2-(10,11-dihydro-5H-dibenzo[a,d][7]annulen-5-yl)tetrahydro-2H-pyran-4-yl)-4-(trifluoromethoxy)benzenesulfonamide]: the IC50 – broadly, the concentration at which inhibition is half-maximal – is 10.3 µM in assay [1] and 14.7 µM in the assay on A172 glioblastoma cells. Moreover, the “% increase from ApoE transfected cell at 5 μM test compound concentration” value in assay [2] was 7.2%.

As for `O=S(=O)(N[C@H]1CCO[C@@H](C2c3ccccc3CCc3ccccc32)C1)c1ccc(OC(F)(F)F)cc1` (single isomer, unassigned) [Example 7], in assay [1], the IC50 came to 5.3 µM.

For the compound `O=S(=O)(NC1CCOC(C2c3ccccc3CCc3ccccc32)C1)c1ccc(Cl)cc1` (stereo not drawn) [Example 9, 4-chloro-N-(2-(10,11-dihydro-5H-dibenzo[a,d][7]annulen-5-yl)tetrahydro-2H-pyran-4-yl)benzenesulfonamide], the IC50 in assay [1] is 6.6 µM.

As for `O=S(=O)(NC1CCOC(C2c3ccccc3CCc3ccccc32)C1)c1ccc(C(F)(F)F)cc1` (stereo not drawn) [Example 10, N-(2-(10,11-dihydro-5H-dibenzo[a,d][7]annulen-5-yl)tetrahydro-2H-pyran-4-yl)-4-(trifluoromethyl)benzenesulfonamide], in assay [1], the IC50 is 6 µM.

For `Cc1ccc(S(=O)(=O)NC2CCOC(C3c4ccccc4CCc4ccccc43)C2)cc1` (stereo not drawn) [Example 11, N-(2-(10,11-dihydro-5H-dibenzo[a,d][7]annulen-5-yl)tetrahydro-2H-pyran-4-yl)-4-meth ylbenzenesulfonamide], the IC50 in assay [1] is 9.5 µM.

For the compound `O=S(=O)(NC1CCOC(C2c3ccccc3CCc3ccccc32)C1)c1ccc(Br)cc1` (stereo not drawn) [Example 12, 4-bromo-N-(2-(10,11-dihydro-5H-dibenzo[a,d][7]annulen-5-yl)tetrahydro-2H-pyran-4-yl)benzenesulfonamide], in assay [1], the IC50 came to 6.2 µM.

As for `O=S(=O)(NC1CCOC(C2c3ccccc3CCc3ccccc32)C1)c1cccc(C(F)(F)F)c1` (stereo not drawn) [Example 13, N-(2-(10,11-dihydro-5H-dibenzo[a,d][7]annulen-5-yl)tetrahydro-2H-pyran-4-yl)-3-(trifluoromethyl)benzenesulfonamide], the IC50 in assay [1] was determined as 5.1 µM.

With `O=C(NC1CCOC(C2c3ccccc3CCc3ccccc32)C1)c1ccc(OC(F)(F)F)cc1` (stereo not drawn) [Example 14, N-(2-(10,11-dihydro-5H-dibenzo[a,d][7]annulen-5-yl)tetrahydro-2H-pyran-4-yl)-4-(trifluoromethoxy)benzamide], in assay [1] (@ 30 μM, 48 hours), the “D425 cell growth, effect at single concentration” value is recorded as around 50% @ 30 μM.

Take `O=S(=O)(NC1CCOC(C(c2ccccc2)c2ccccc2)C1)c1ccc(OC(F)(F)F)cc1` (stereo not drawn) [Example 15, N-(2-benzhydryltetrahydro-2H-pyran-4-yl)-4-(trifluoromethoxy)benzenesulfonamide]: the IC50 in assay [1] was found to be 11.2 µM.

As to `O=S(=O)(NC1CCOC(C(c2ccc(F)cc2)c2ccc(F)cc2)C1)c1ccc(OC(F)(F)F)cc1` (stereo not drawn) [Example 16, N-(2-(bis(4-fluorophenyl)methyl)tetrahydro-2H-pyran-4-yl)-4-(trifluoromethoxy)benzenesulfonamide], the IC50 in assay [1] is 7.3 µM.
